According to US20230212549A1, “COMPOUNDS COMPRISING A […] LIGAND AND USE THEREOF” (priority 2021, published 2023):
Numbered stars: 1 amine (or outer) side, 2 acyl side, 3 side chain; on linkers, the order of the positions; unused ones are H or OH. Bridge positions count the residues as written; N and C are the ends. Peptide text beside a SMILES is read from it. * marks the point of attachment. X17 = NC(=O)[C@H](CCCCNC(=O)CN1CCN(CC(=O)O)CCN(CC(=O)O)CCN(CC(=O)O)CC1)NC(=O)CCC(=O)NCCCOCCOCCOCCCN*; TBMB(SCH2CH2NH-DOTA) = O=C(O)CN1CCN(CC(=O)O)CCN(CC(=O)NCCSCc2cc(C[*:1])cc(C[*:2])c2)CCN(CC(=O)O)CC1; mXylylene = c1cc(C[*:1])cc(C[*:2])c1; Hexanoyl = CCCCCC(=O)*

Tests used:
Human recombinant FAP [1] = target: T1, Human recombinant FAP (Homo sapiens, UniProt Q12884); experiment: FRET-based FAP protease activity assay; type: biochemical; parameters: purchased R&D systems 3715-SE; conditions: pIC50 Category (Activity), 37° C.
T1 sequence (Q12884 whole entry): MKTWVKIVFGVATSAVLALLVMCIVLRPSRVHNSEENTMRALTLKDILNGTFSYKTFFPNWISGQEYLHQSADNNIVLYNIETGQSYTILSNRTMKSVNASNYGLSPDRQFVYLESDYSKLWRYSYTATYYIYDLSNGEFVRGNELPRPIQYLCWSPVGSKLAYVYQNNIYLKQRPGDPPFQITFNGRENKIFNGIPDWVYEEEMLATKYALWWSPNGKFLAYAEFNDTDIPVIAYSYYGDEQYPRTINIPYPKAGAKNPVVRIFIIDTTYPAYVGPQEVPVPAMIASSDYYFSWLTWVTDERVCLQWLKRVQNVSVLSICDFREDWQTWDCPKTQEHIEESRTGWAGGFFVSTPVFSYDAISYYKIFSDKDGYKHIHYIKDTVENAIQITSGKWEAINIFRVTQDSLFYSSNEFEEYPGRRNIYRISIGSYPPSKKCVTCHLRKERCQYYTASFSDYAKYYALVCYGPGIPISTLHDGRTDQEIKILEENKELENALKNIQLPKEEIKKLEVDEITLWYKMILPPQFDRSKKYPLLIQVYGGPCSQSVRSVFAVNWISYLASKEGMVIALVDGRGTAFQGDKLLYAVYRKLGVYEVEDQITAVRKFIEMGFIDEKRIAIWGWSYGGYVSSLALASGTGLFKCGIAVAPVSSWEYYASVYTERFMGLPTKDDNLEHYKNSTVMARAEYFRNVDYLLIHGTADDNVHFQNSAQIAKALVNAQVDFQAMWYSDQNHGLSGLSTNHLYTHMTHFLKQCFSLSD

[2] = target: T2, FAP-expressing human WI-38 fibroblasts (Homo sapiens, UniProt Q12884); experiment: Competitive FACS binding assay
T2 construct: FAP-expressing human WI-38 fibroblasts (ECACC) were cultured in EMEM; host or cells: WI-38 human fibroblasts
T2 sequence (Q12884 whole entry): as above
Experimental: Cells were analyzed in an Attune NxT flow cytometer. […] […].
Cells were analyzed in an Attune NxT flow cytometer. […]

Human recombinant FAP [3] = target: T1, Human recombinant FAP; experiment: Surface plasmon resonance (Biacore) assay; type: binding; conditions: for pKD Category: Biacore assay
[4] = FRET-based FAP protease activity assay, recombinant human FAP

SMILES	IC50 (Human recombinant FAP [1]; [4])	IC50 [2]	Kd (Human recombinant FAP [3])	IC50 (Human recombinant FAP [1]; FRET-peptide substrate)	pKD Category (Human recombinant FAP [3])
CCOCCC(=O)N[C@H]1CSCc2cc(CSCCNC(=O)CN3CCN(CC(=O)O)CCN(CC(=O)O)CCN(CC(=O)O)CC3)cc(c2)CSC[C@@H](C(=O)O)NC(=O)[C@H](Cc2ccccc2)NC(=O)[C@H](CCC(N)=O)NC(=O)[C@H]([C@@H](C)O)NC(=O)[C@@H]2CCCN2C(=O)[C@@H]2CCCN2C1=O [3BP-3918, EtOPr-[Cys(tMeBn(DOTA-AET))-Pro-Pro-Thr-Gln-Phe-Cys]-OH]		< 0.01 µM	< 0.01 µM	< 0.01 µM	A (Category A stands for pKD values >8.0)
CC(C)CCC(=O)N[C@H]1CSCc2cc(CSCCNC(=O)CN3CCN(CC(=O)O)CCN(CC(=O)O)CCN(CC(=O)O)CC3)cc(c2)CSC[C@@H](C(=O)O)NC(=O)[C@H](Cc2ccccc2)NC(=O)[C@H](CCC(N)=O)NC(=O)[C@H]([C@@H](C)O)NC(=O)[C@@H]2CCCN2C(=O)[C@@H]2CCCN2C1=O [3BP-3907, iHex-[Cys(tMeBn(DOTA-AET))-Pro-Pro-Thr-Gln-Phe-Cys]-OH]		< 0.01 µM	< 0.01 µM	< 0.01 µM	A (Category A stands for pKD values >8.0)
CCCCCC(=O)N[C@H]1CSCc2cc(CSCCNC(=O)CN3CCN(CC(=O)O)CCN(CC(=O)O)CCN(CC(=O)O)CC3)cc(c2)CSC[C@@H](C(=O)NCC(=O)O)NC(=O)[C@H](Cc2ccccc2)NC(=O)[C@H](CCC(N)=O)NC(=O)[C@H]([C@@H](C)O)NC(=O)[C@@H]2CCCN2C(=O)[C@@H]2CCCN2C1=O [3BP-3656, Hex-[Cys(tMeBn(DOTA-AET))-Pro-Pro-Thr-Gln-Phe-Cys]-Gly-OH] (Hexanoyl-CPPTQFCG-OH; linker 1-7 via TBMB(SCH2CH2NH-DOTA))	< 0.01 µM	< 0.01 µM	< 0.01 µM		
CCCCCC(=O)N[C@H]1CSCc2cc(CSCCNC(=O)CN3CCN(CC(=O)O)CCN(CC(=O)O)CCN(CC(=O)O)CC3)cc(c2)CSC[C@@H](C(=O)O)NC(=O)[C@H](Cc2ccccc2C(F)(F)F)NC(=O)[C@H](CCC(N)=O)NC(=O)[C@H]([C@@H](C)O)NC(=O)[C@@H]2CCCN2C(=O)[C@@H]2CCCN2C1=O [3BP-3680, Hex-[Cys(tMeBn(DOTA-AET))-Pro-Pro-Thr-Gln-Otf-Cys]-OH]	< 0.01 µM	< 0.01 µM	< 0.01 µM		
CCCCCC(=O)N[C@H]1CSCc2cccc(c2)CSC[C@@H](C(=O)N[C@@H](CC(=O)O)C(=O)NCCCOCCOCCOCCCNC(=O)CCC(=O)N[C@@H](CCCCNC(=O)CN2CCN(CC(=O)O)CCN(CC(=O)O)CCN(CC(=O)O)CC2)C(N)=O)NC(=O)[C@H](Cc2ccccc2)NC(=O)[C@H](CCC(N)=O)NC(=O)[C@H]([C@@H](C)O)NC(=O)[C@@H]2CCCN2C(=O)[C@@H]2CCCN2C1=O [3BP-3395, Hex-[Cys(3MeBn)-Pro-Pro-Thr-Gln-Phe-Cys]-Asp-Ttds-Lys(DOTA)-NH2] (Hexanoyl-CPPTQFCD-X17; linker 1-7 via mXylylene)	< 0.01 µM	< 0.01 µM	< 0.01 µM		

Second part, led by results:

IC50 (Human recombinant FAP [1]; [4])	IC50 [2]	Kd (Human recombinant FAP [3])	IC50 (Human recombinant FAP [1]; FRET-peptide substrate)	SMILES	pKD Category (Human recombinant FAP [3])
< 0.01 µM	< 0.01 µM	< 0.01 µM		CCCCCC(=O)N[C@H]1CSCc2cc(CSCCNC(=O)CN3CCN(CC(=O)O)CCN(CC(=O)O)CCN(CC(=O)O)CC3)cc(c2)CSC[C@@H](C(N)=O)NC(=O)[C@H](Cc2ccccc2)NC(=O)[C@H](CCC(=O)O)NC(=O)[C@H]([C@@H](C)O)NC(=O)[C@@H]2CCCN2C(=O)[C@@H]2CCCN2C1=O [3BP-3653, Hex-[Cys(tMeBn(DOTA-AET))-Pro-Pro-Thr-Glu-Phe-Cys]-NH2] (Hexanoyl-CPPTEFC-NH2; linker 1-7 via TBMB(SCH2CH2NH-DOTA))	
< 0.01 µM	< 0.01 µM	< 0.01 µM		CCCCCC(=O)N[C@H]1CSCc2cc(CSCCNC(=O)CN3CCN(CC(=O)O)CCN(CC(=O)O)CCN(CC(=O)O)CC3)cc(c2)CSC[C@@H](C(=O)N(C)CC(=O)O)NC(=O)[C@H](Cc2ccccc2)NC(=O)[C@H](CCC(N)=O)NC(=O)[C@H]([C@@H](C)O)NC(=O)[C@@H]2CCCN2C(=O)[C@@H]2CCCN2C1=O [3BP-3659, Hex-[Cys(tMeBn(DOTA-AET))-Pro-Pro-Thr-Gln-Phe-Cys]-Nmg-OH]	
